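Method: 48-hour compound exposure of cells in 96-well plates, five concentrations, linear interpolation of endpoints. TGI: concentration producing complete growth inhibition.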
Legend:
Assay in all cases: NCI-60 cell line screen, 48 h
LOX IMVI melanoma = tested on: LOX IMVI melanoma
M14 melanoma = tested on: M14 melanoma
MDA-N = tested on: MDA-N
ACHN renal = tested on: ACHN renal
SF-268 CNS = tested on: SF-268 CNS
NCI-H226 lung = tested on: NCI-H226 lung
CCRF-CEM leukemia = tested on: CCRF-CEM leukemia
A498 renal = tested on: A498 renal
SNB-19 CNS = tested on: SNB-19 CNS
OVCAR-8 ovarian = tested on: OVCAR-8 ovarian
NCI-H460 lung = tested on: NCI-H460 lung
NCI/ADR-RES ovarian = tested on: NCI/ADR-RES ovarian
NCI-H522 lung = tested on: NCI-H522 lung
SK-MEL-28 melanoma = tested on: SK-MEL-28 melanoma
SNB-75 CNS = tested on: SNB-75 CNS
SF-539 CNS = tested on: SF-539 CNS
786-0 renal = tested on: 786-0 renal
HCT-15 colon = tested on: HCT-15 colon
U251 CNS = tested on: U251 CNS
MOLT-4 leukemia = tested on: MOLT-4 leukemia
UO-31 renal = tested on: UO-31 renal
T-47D breast = tested on: T-47D breast
SK-OV-3 ovarian = tested on: SK-OV-3 ovarian
RPMI-8226 leukemia = tested on: RPMI-8226 leukemia
DU-145 prostate = tested on: DU-145 prostate
MDA-MB-231 breast = tested on: MDA-MB-231 breast
MALME-3M melanoma = tested on: MALME-3M melanoma
A549 NSCLC = tested on: A549 NSCLC
SK-MEL-2 melanoma = tested on: SK-MEL-2 melanoma
MCF7 breast = tested on: MCF7 breast
CAKI-1 renal = tested on: CAKI-1 renal
PC-3 prostate = tested on: PC-3 prostate
HS 578T breast = tested on: HS 578T breast
SW-620 colon = tested on: SW-620 colon
UACC-62 melanoma = tested on: UACC-62 melanoma
SF-295 CNS = tested on: SF-295 CNS
COLO 205 colon = tested on: COLO 205 colon
UACC-257 melanoma = tested on: UACC-257 melanoma
HOP-92 NSCLC = tested on: HOP-92 NSCLC
OVCAR-5 ovarian = tested on: OVCAR-5 ovarian
SN12C renal = tested on: SN12C renal
TK-10 renal = tested on: TK-10 renal
HCC-2998 colon = tested on: HCC-2998 colon
HT29 colon = tested on: HT29 colon
EKVX NSCLC = tested on: EKVX NSCLC
OVCAR-4 ovarian = tested on: OVCAR-4 ovarian
HCT-116 colon = tested on: HCT-116 colon
HOP-62 NSCLC = tested on: HOP-62 NSCLC
SR leukemia = tested on: SR leukemia
SK-MEL-5 melanoma = tested on: SK-MEL-5 melanoma
K-562 leukemia = tested on: K-562 leukemia
NCI-H23 lung = tested on: NCI-H23 lung
MDA-MB-435 = tested on: MDA-MB-435
KM12 colon = tested on: KM12 colon
BT-549 breast = tested on: BT-549 breast
RXF 393 renal = tested on: RXF 393 renal
OVCAR-3 ovarian = tested on: OVCAR-3 ovarian
HL-60(TB) leukemia = tested on: HL-60(TB) leukemia
IGROV1 ovarian = tested on: IGROV1 ovarian

Oc1ccc(-c2nn3c(CCCCCCCCc4nnc5sc(-c6ccc(O)cc6)nn45)nnc3s2)cc1
TGI (LOX IMVI melanoma): > 100 µM | TGI (M14 melanoma): > 100 µM | TGI (MDA-N): > 100 µM | TGI (ACHN renal): > 100 µM | TGI (SF-268 CNS): > 100 µM | TGI (NCI-H226 lung): > 100 µM | TGI (CCRF-CEM leukemia): > 100 µM | TGI (A498 renal): > 100 µM | TGI (SNB-19 CNS): > 100 µM | TGI (OVCAR-8 ovarian): > 100 µM | TGI (NCI-H460 lung): > 100 µM | TGI (NCI/ADR-RES ovarian): > 100 µM | TGI (NCI-H522 lung): > 100 µM | TGI (SK-MEL-28 melanoma): > 100 µM | TGI (SNB-75 CNS): > 100 µM | TGI (SF-539 CNS): > 100 µM | TGI (786-0 renal): > 100 µM | TGI (HCT-15 colon): > 100 µM | TGI (U251 CNS): > 100 µM | TGI (MOLT-4 leukemia): > 100 µM | TGI (UO-31 renal): > 100 µM | TGI (T-47D breast): > 100 µM | TGI (SK-OV-3 ovarian): > 100 µM | TGI (RPMI-8226 leukemia): > 100 µM | TGI (DU-145 prostate): > 100 µM | TGI (MDA-MB-231 breast): > 100 µM | TGI (MALME-3M melanoma): > 100 µM | TGI (A549 NSCLC): > 100 µM | TGI (SK-MEL-2 melanoma): > 100 µM | TGI (MCF7 breast): > 100 µM | TGI (CAKI-1 renal): > 100 µM | TGI (PC-3 prostate): > 100 µM | TGI (HS 578T breast): > 100 µM | TGI (SW-620 colon): > 100 µM | TGI (UACC-62 melanoma): > 100 µM | TGI (SF-295 CNS): > 100 µM | TGI (COLO 205 colon): > 100 µM | TGI (UACC-257 melanoma): > 100 µM | TGI (HOP-92 NSCLC): > 100 µM | TGI (OVCAR-5 ovarian): > 100 µM | TGI (SN12C renal): > 100 µM | TGI (TK-10 renal): > 100 µM | TGI (HCC-2998 colon): > 100 µM | TGI (HT29 colon): > 100 µM | TGI (EKVX NSCLC): > 100 µM | TGI (OVCAR-4 ovarian): > 100 µM | TGI (HCT-116 colon): > 100 µM | TGI (HOP-62 NSCLC): > 100 µM | TGI (SR leukemia): > 100 µM | TGI (SK-MEL-5 melanoma): > 100 µM | TGI (K-562 leukemia): > 100 µM | TGI (NCI-H23 lung): > 100 µM | TGI (MDA-MB-435): > 100 µM | TGI (KM12 colon): > 100 µM | TGI (BT-549 breast): > 100 µM | TGI (RXF 393 renal): > 100 µM | TGI (OVCAR-3 ovarian): > 100 µM

COc1ccc(/C=C(\C#N)c2nc3ccccc3c(=O)[nH]2)cc1
TGI (LOX IMVI melanoma): > 100 µM | TGI (M14 melanoma): > 100 µM | TGI (MDA-N): > 100 µM | TGI (ACHN renal): 42.3 µM | TGI (HL-60(TB) leukemia): > 100 µM | TGI (SF-268 CNS): 47.2 µM | TGI (NCI-H226 lung): 84.3 µM | TGI (CCRF-CEM leukemia): > 100 µM | TGI (SNB-19 CNS): 28.9 µM | TGI (OVCAR-8 ovarian): 28.4 µM | TGI (NCI-H460 lung): 34.4 µM | TGI (NCI/ADR-RES ovarian): 90.1 µM | TGI (NCI-H522 lung): 25.2 µM | TGI (SK-MEL-28 melanoma): > 100 µM | TGI (SNB-75 CNS): > 100 µM | TGI (SF-539 CNS): 26.1 µM | TGI (786-0 renal): 34.7 µM | TGI (HCT-15 colon): > 100 µM | TGI (U251 CNS): 33.9 µM | TGI (MOLT-4 leukemia): > 100 µM | TGI (UO-31 renal): 72.4 µM | TGI (T-47D breast): 75.1 µM | TGI (SK-OV-3 ovarian): 23.8 µM | TGI (RPMI-8226 leukemia): > 100 µM | TGI (DU-145 prostate): 64.6 µM | TGI (MDA-MB-231 breast): 19.7 µM | TGI (MALME-3M melanoma): > 100 µM | TGI (A549 NSCLC): > 100 µM | TGI (SK-MEL-2 melanoma): 74.7 µM | TGI (MCF7 breast): > 100 µM | TGI (CAKI-1 renal): 80.1 µM | TGI (PC-3 prostate): > 100 µM | TGI (HS 578T breast): 91.6 µM | TGI (SW-620 colon): > 100 µM | TGI (UACC-62 melanoma): > 100 µM | TGI (SF-295 CNS): 52.2 µM | TGI (COLO 205 colon): > 100 µM | TGI (UACC-257 melanoma): > 100 µM | TGI (HOP-92 NSCLC): 29.3 µM | TGI (OVCAR-5 ovarian): > 100 µM | TGI (SN12C renal): > 100 µM | TGI (TK-10 renal): 83.8 µM | TGI (HCC-2998 colon): > 100 µM | TGI (HT29 colon): > 100 µM | TGI (EKVX NSCLC): > 100 µM | TGI (IGROV1 ovarian): 75.1 µM | TGI (OVCAR-4 ovarian): 70.3 µM | TGI (HCT-116 colon): 19 µM | TGI (HOP-62 NSCLC): 24.1 µM | TGI (SR leukemia): > 100 µM | TGI (SK-MEL-5 melanoma): 57.1 µM | TGI (K-562 leukemia): > 100 µM | TGI (MDA-MB-435): > 100 µM | TGI (KM12 colon): > 100 µM | TGI (BT-549 breast): 29.7 µM | TGI (RXF 393 renal): 32.3 µM

CN(C)c1ccc(/C=C/c2nc3ccccc3s2)cc1
TGI (LOX IMVI melanoma): > 100 µM | TGI (M14 melanoma): > 100 µM | TGI (MDA-N): > 100 µM | TGI (ACHN renal): > 100 µM | TGI (HL-60(TB) leukemia): > 100 µM | TGI (SF-268 CNS): > 100 µM | TGI (NCI-H226 lung): > 100 µM | TGI (CCRF-CEM leukemia): > 100 µM | TGI (A498 renal): > 100 µM | TGI (SNB-19 CNS): > 100 µM | TGI (OVCAR-8 ovarian): > 100 µM | TGI (NCI-H460 lung): > 100 µM | TGI (NCI/ADR-RES ovarian): > 100 µM | TGI (NCI-H522 lung): > 100 µM | TGI (SK-MEL-28 melanoma): > 100 µM | TGI (SF-539 CNS): > 100 µM | TGI (786-0 renal): > 100 µM | TGI (HCT-15 colon): > 100 µM | TGI (U251 CNS): > 100 µM | TGI (MOLT-4 leukemia): > 100 µM | TGI (UO-31 renal): > 100 µM | TGI (T-47D breast): > 100 µM | TGI (SK-OV-3 ovarian): > 100 µM | TGI (RPMI-8226 leukemia): > 100 µM | TGI (DU-145 prostate): > 100 µM | TGI (MDA-MB-231 breast): > 100 µM | TGI (MALME-3M melanoma): > 100 µM | TGI (A549 NSCLC): > 100 µM | TGI (SK-MEL-2 melanoma): > 100 µM | TGI (MCF7 breast): > 100 µM | TGI (PC-3 prostate): > 100 µM | TGI (HS 578T breast): > 100 µM | TGI (SW-620 colon): > 100 µM | TGI (SF-295 CNS): > 100 µM | TGI (COLO 205 colon): > 100 µM | TGI (UACC-257 melanoma): > 100 µM | TGI (HOP-92 NSCLC): > 100 µM | TGI (OVCAR-5 ovarian): > 100 µM | TGI (SN12C renal): > 100 µM | TGI (TK-10 renal): > 100 µM | TGI (HCC-2998 colon): > 100 µM | TGI (HT29 colon): > 100 µM | TGI (EKVX NSCLC): > 100 µM | TGI (IGROV1 ovarian): > 100 µM | TGI (OVCAR-4 ovarian): > 100 µM | TGI (HCT-116 colon): > 100 µM | TGI (HOP-62 NSCLC): > 100 µM | TGI (SR leukemia): > 100 µM | TGI (SK-MEL-5 melanoma): > 100 µM | TGI (K-562 leukemia): > 100 µM | TGI (NCI-H23 lung): > 100 µM | TGI (MDA-MB-435): > 100 µM | TGI (KM12 colon): > 100 µM | TGI (BT-549 breast): > 100 µM | TGI (RXF 393 renal): > 100 µM

Reference: PubChem BioAssay (NCI)
